Assay results from patent publication US12048683B2, “Kaempferol analog-containing composition” (OTSUKA PHARMACEUTICAL CO., LTD., priority 2017, dated 2024).

Columns and labels:
healthy adult males = assay: Incremental loading exercise test with bicycle; assay type: in vivo, human; details: compared with no intake of kaempferol
Method: For 25 healthy adult males, 3 dosages of kaempferol-containing cookie-shaped foods (containing 2.5 mg, 10 mg, or 25 mg of kaempferol, respectively) and a placebo cookie-shaped food (kaempferol-free) were used as test foods, and a once-a-day ingestion for consecutive 8 days were repeated four times by the crossover method. 3 hours after a test food ingestion on day 1 (Single ingestion) and on day 8 (Consecutive ingestion), an incremental loading exercise with bicycle was performed while sampling the exhaled gas to determine the oxygen consumption. The Heart rate and the rating of perceived exertion were monitored during exercise. Dynamic/kinetic visual acuity was measured before and after the exercise. Details of each endpoint are given below. Oxygen consumption (VO2) (mL/min/kg) was calculated from the difference between the amount of oxygen in the inhaled gas (atmosphere) and the amount of oxygen in the exhaled gas. When a weight of the pedal approaches a subject's limit during incremental loading exercise with bicycle, a heart rate (HR) is maximized. The increase in heart rate from the resting heart rate to the maximum heart rate was defined as 100% of exercise intensity, and the oxygen consumption (VO2) was plotted at each exercise intensity. That is, for example, an exercise intensity of 50% HR is calculated by the following equation: 100×(x−Resting heart rate)/(Maximum heart rate−Resting heart rate)=50% HR, and the oxygen consumption (VO2) in which the heart rate is the “x” means “oxygen consumption (VO2) at an exercise intensity of 50% HR”. Oxygen consumption efficiency was calculated by the following equation. Oxygen consumption efficiency (VO2/VE)=oxygen consumption/ventilation The oxygen uptake efficiency slope (OUES) was calculated using the ventilation and VO2 every 1 min from the beginning of the incremental loading exercise. Specifically, a graph of linearity was obtained by plotting “logarithmic value of ventilation (VE)” on the horizontal axis and “VO2” on the vertical axis, and the slope of the linear function graph was defined as OUES. For details, see Non-Patent Document 5. Exercise intensity (% HR) and rating of perceived exertion (RPE) at the oxygen consumption (VO2) of 14 mL/min/kg and 24.5 mL/min/kg in incremental loading exercise (the levels of stair climbing and jogging, respectively) were evaluated. The calculation methods for oxygen consumption (VO2) and exercise intensity (% HR) are the same as those described above. The perceived exertion was rated by the subject according to the following table at 1-minute intervals from the beginning of the incremental loading exercise, and the scales rated by each subject were averaged to give the rating of perceived exertion (RPE).

healthy male adults = assay: Effect on performance in 400 m run; assay type: in vivo, human; details: single ingestion, 10 mg aglycone equivalent, 3 hours before run; placebo group −0.11 seconds
Method: A two-group and two-phase crossover study (single ingestion) was conducted for 13 healthy male adults. In the study, a kaempferol-containing capsule-shaped food (SNR 14) wherein the aglycone equivalent value is 10 mg; and a placebo capsule-shaped food: Placebo (kaempferol free) were used as test foods. Three hours after taking the test food, the subjects sprinted 400 m, and sprinted 400 m again after a 90 minute interval. Respiratory rate and heart rate were monitored during the sprint. The expiratory mouth pressure was measured by the maximum mouth pressure method, before and after the 400 m runs, using an electronic spirometer, autospyro (Minato Medical Science Co., Ltd.). The subjects inhaled to the limit after three deep breaths in a standing position and then exhaled with full force into the mouthpiece for measurement while preventing air leakage from the nose to determine expiratory mouth pressure.

[1] = at oxygen consumption (VO2) of 14 and 24.5 mL/min/kg (stair climbing and jogging levels), single and consecutive ingestion
[2] = single ingestion and consecutive ingestion

For O=c1c(O)c(-c2ccc(O)cc2)oc2cc(O)cc(O)c12 [kaempferol], the “oxygen consumption (VO2)” value (healthy adult males; at all exercise intensities (50%, 60%, 70%, 80%, 90%, and 100% HR), single ingestion and consecutive ingestion (8 days), 2.5, 10 or 25 mg kaempferol cookie) was “increased”, the “exercise intensity (% HR)” value (healthy adult males; [1]) was “decreased” and the “rating of perceived exertion (RPE)” value (healthy adult males; [1]) was “decreased”. For the same molecule, the “maximum exercise load (Pedal Weight (watt))” value (healthy adult males; [2]) was “increased”, the “maximum oxygen consumption (VO2peak)” value (healthy adult males; [2]) was “increased” and the “oxygen consumption efficiency (VO2/VE)” value (healthy adult males; [2]) was “increased”. For the same molecule, the “oxygen uptake efficiency slope (OUES)” value (healthy adult males; [2]) was “increased” and the “mean time change between the 1st and 2nd 400 m runs” value (healthy male adults) was -0.77 s.
